Read-outs that look alike come from different tables or passages of the source.
Experiments:
Format in all cases: biochemical
[1] = molecular target: T1, recombinant human sPLA2-IIA enzyme (Homo sapiens, UniProt P14555); assay: sPLA2-IIA enzyme inhibition assay (thio-PC substrate, DTNB detection, absorbance 410 nm); settings: class symbols
T1 construct: made in house; host or cells: E. coli
T1 sequence (P14555 21-144): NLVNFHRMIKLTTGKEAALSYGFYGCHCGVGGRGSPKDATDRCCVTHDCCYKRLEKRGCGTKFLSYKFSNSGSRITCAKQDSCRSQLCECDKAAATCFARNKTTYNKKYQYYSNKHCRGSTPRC
Source text: (§1) Screening Compounds for Inhibition of sPLA2-X, sPLA2-V, and sPLA2-IIA Enzyme Activity
(§2) These sPLA2 enzymes hydrolyze the sn-2 acyl chains of glycerophospholipids, resulting in the release of a free fatty acid and a lysophospholipid. In the case of the thio-PC substrate, this enzymatic hydrolysis results in a free sulfhydryl group remaining on the lysophospholipid. This free sulfhydryl reacts with DTNB to produce the chromogenic product 5-nitro-2-thiobenzoic acid (TNB) which can be quantitated by absorbance at 410 nm. The amount of TNB produced reflects the hydrolytic activity of the enzyme.
(§3) The recombinant human sPLA2 groups IIA, V, and X enzymes were expressed in E. coli and purified to >90% purity by standard biochemical methods.
(§4) Procedure of Enzyme Inhibition for sPLA2-X • 1. […] Dilute the test compounds in 100% DMSO by half-log steps in a 96-well dilution plate using columns 1-11 (one compound per row). Column 12 contains DMSO alone with no compound. • 3. Prepare a 3.5 mM thio-PC substrate solution by drying down 7.2 mg of stock thio-PC in ethanol under a gentle stream of N2 gas. When dry, add 4 mL assay buffer (25 mM Tris, pH7.4; 100 mM KCl; 10 mM CaCl2; 0.1% Triton X-100) and warm in a 37° C. water bath for 20 minutes with intermittent vortexing. • 4. Prepare an “enzyme containing” reaction mix with the following components: 20.4 mL assay buffer; 2 mL DTNB (20 mM in 800 mM Tris, pH8.0); and 11.8 mg recombinant human sPLA2-X enzyme (>95% pure) diluted to a total of 0.8 mL assay buffer. • 5. Prepare a “no enzyme” reaction mix with the following components: 477 μL assay buffer and 45 μL DTNB. • 6. Dispense 58 μL “no enzyme” reaction mix into each of 8 wells (columns 23 and 24, rows M-P). • 7. Dispense 58 μL “enzyme containing” reaction mix into all remaining wells on the plate. • 8. From the 96-well compound dilution plate, add 2 μL from each well for each compound to each of 4 wells with “enzyme containing” reaction mix. Columns 23 and 24 on the assay plate will contain only DMSO (vehicle control). […] After compound addition, mix the contents of each well to ensure that the DMSO is evenly distributed in the well. • 9. Cover the plate and incubate in the dark at room temperature for 15 minutes. • 10. Add 10 μL of thio-PC substrate to all wells. The final concentration of thio-PC in the reactions is 0.5 mM. • 11. Cover the plate and incubate in the dark at room temperature for 30 minutes. • 12. Measure the absorbance of all wells at 410 nm. • 13. Determine the mean absorbance of the “no enzyme” wells. Subtract this value from the absorbance values determined for all other wells (these are now background corrected data). • 14. […] Procedure of Enzyme Inhibition for sPLA2-V • 1. […] Dilute the test compounds in 100% DMSO by half-log steps in a 96-well dilution plate using columns 1-11. Column 12 contains DMSO alone with no compound. • 3. Prepare a 3.5 mM thio-PC substrate solution by drying down 7.2 mg of stock thio-PC in ethanol under a gentle stream of N2 gas. When dry, add 4 mL assay buffer (25 mM Tris, pH7.4; 100 mM KCl; 10 mM CaCl2; 0.1% Triton X-100) and warm in a 37° C. water bath for 20 minutes with intermittent vortexing. • 4. Prepare an “enzyme containing” reaction mix with the following components: 20.4 mL assay buffer; 2 mL DTNB (20 mM in 800 mM Tris, pH8.0); and 12 mg recombinant human sPLA2-V enzyme (>95% pure) diluted to a total of 0.8 mL assay buffer. • 5. Prepare a “no enzyme” reaction mix with the following components: 477 μL assay buffer and […]. • 6. Dispense 58 μL “no enzyme” reaction mix into each of 8 wells (columns 23 and 24, rows M-P). • 7. Dispense 58 μL “enzyme containing” reaction mix into all remaining wells on the plate. • 8. From the 96-well compound dilution plate, add 2 μL from each well for each compound to each of 4 wells with “enzyme containing” reaction mix. Columns 23 and 24 on the assay plate will contain only DMSO (vehicle control).

[2] = molecular target: T2, recombinant human sPLA2-V enzyme (Homo sapiens, UniProt P39877); assay: sPLA2-V enzyme inhibition assay (thio-PC substrate, DTNB detection, absorbance 410 nm)
T2 construct: made in house; host or cells: E. coli
T2 sequence (P39877 21-138): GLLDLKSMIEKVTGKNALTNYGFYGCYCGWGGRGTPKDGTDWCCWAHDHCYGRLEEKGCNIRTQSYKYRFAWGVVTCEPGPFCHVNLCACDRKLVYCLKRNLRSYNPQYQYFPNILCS
Source text: as §1, §2, §3, §4

sPLA2-X protein = molecular target: T3, sPLA2-X protein (Homo sapiens, UniProt O15496); assay: sPLA2-X enzyme inhibition assay (thio-PC substrate, DTNB detection, absorbance 410 nm); parameters: made in house; host or cells: E. coli; settings: class symbols
T3 sequence (O15496 43-165): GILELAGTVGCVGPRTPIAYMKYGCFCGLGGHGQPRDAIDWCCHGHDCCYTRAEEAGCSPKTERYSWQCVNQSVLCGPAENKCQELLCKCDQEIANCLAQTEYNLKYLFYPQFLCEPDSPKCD
Source text: as §1, §2, §3, §4

[3] = read-out: sPLA2 Type IIa Inhibition (IC50; nM)
[4] = class symbols, read-out: sPLA2 Type V Inhibition (IC50; nM)
[5] = read-out: sPLA2 Type X Inhibition (IC50; nM)

SMILES | IC50 [1, 3] [nM] | IC50 [2, 4] [nM] | IC50 (sPLA2-X protein; [5]) [nM] | IC50 ([1]; sPLA2 Type IIa Inhibition (IC50; nM)) [nM] | IC50 ([2]; sPLA2 Type V Inhibition (IC50; nM), class symbols) [nM] | IC50 (sPLA2-X protein; sPLA2 Type X Inhibition (IC50; nM)) [nM] | IC50 ([2]; IC50 value for positive control, sPLA2-V, value the positive control should give per the procedure) [nM] | IC50 ([2]; numeric value, control, read-out: sPLA2 Type V Inhibition (IC50; nM)) [nM]
NC(=O)c1cc2ccc(OC(F)(F)F)cc2n1-c1cccc(C2CC2C(=O)O)c1 (racemic) [Compound 15, trans-2-(3-(2-carbamoyl-6-(trifluoromethoxy)-1H-indol-1-yl)phenyl)cyclopropane-1-carboxylic acid] | > 1000 | > 5000 | 20 to 50 | – | – | – | – | –
NC(=O)c1cc2ccc(OC(F)(F)F)cc2n1-c1cccc(C2CC2C(=O)O)n1 (racemic) [Compound 28, trans-(rac)-2-(6-(2-carbamoyl-6-(trifluoromethoxy)-1H-indol-1-yl)pyridin-2-yl)cyclopropane-1-carboxylic acid] | > 1000 | > 5000 | < 20 | – | – | – | – | –
NC(=O)c1cc2ccc(OC(F)(F)F)cc2n1-c1cccc(C2CC2C(=O)O)n1 (racemic) [Compound 28c, cis-(rac)-2-(6-(2-carbamoyl-6-(trifluoromethoxy)-1H-indol-1-yl)pyridin-2-yl)cyclopropane-1-carboxylic acid] | 200 to 500 | 1500 to 5000 | 20 to 50 | – | – | – | – | –
NC(=O)c1sc2ccc(OC(F)(F)F)cc2c1-c1cccc(C2CC2C(=O)O)n1 (racemic) [Compound 54, trans-(rac)-2-(6-(2-carbamoyl-5-(trifluoromethoxy)benzo[b]thiophen-3-yl)pyridin-2-yl)cyclopropane-1-carboxylic acid] | > 1000 | > 5000 | 50 to 200 | – | – | – | – | –
NC(=O)c1[se]c2ccc(OC(F)(F)F)cc2c1-c1cccc(C2CC2C(=O)O)n1 (racemic) [Compound 55, trans-(rac)-2-(6-(2-carbamoyl-5-(trifluoromethoxy)benzo[b]selenophen-3-yl)pyridin-2-yl)cyclopropane-1-carboxylic acid] | – | – | – | > 1000 | > 5000 | > 200 | – | –
NC(=O)c1cc2ccc(OC(F)(F)F)cc2n1-c1cccc([C@H]2C[C@@H]2C(=O)O)n1 (relative stereo) [Compound 28a, trans-(−)-2-(6-(2-carbamoyl-6-(trifluoromethoxy)-1H-indol-1-yl)pyridin-2-yl)cyclopropane-1-carboxylic acid] | > 1000 | > 5000 | < 20 | – | – | – | – | –
C[C@]1(c2cccc(-n3c(C(N)=O)cc4ccc(OC(F)(F)F)cc43)c2)C[C@H]1C(=O)O (relative stereo) [Compound 38a, cis-2-(3-(2-carbamoyl-6-(trifluoromethoxy)-1H-indol-1-yl)phenyl)-2-methylcyclopropane-1-carboxylic acid] | 200 to 500 | < 500 | < 20 | – | – | – | – | –
C[C@@]1(c2cccc(-n3c(C(N)=O)cc4ccc(OC(F)(F)F)cc43)c2)C[C@H]1C(=O)O (relative stereo) [Compound 38b, trans-2-(3-(2-carbamoyl-6-(trifluoromethoxy)-1H-indol-1-yl)phenyl)-2-methylcyclopropane-1-carboxylic acid] | > 1000 | > 5000 | 20 to 50 | – | – | – | – | –
NC(=O)c1cc2ccc(OC(F)(F)F)cc2n1-c1cccc(C2CC2C(=O)O)c1 (single isomer, unassigned) [Compound 15a, trans-(+)-2-(3-(2-carbamoyl-6-(trifluoromethoxy)-1H-indol-1-yl)phenyl)cyclopropane-1-carboxylic acid] | > 1000 | > 5000 | > 200 | – | – | – | – | –
NC(=O)c1cc2ccc(OC(F)(F)F)cc2n1-c1cccc(C2CC2C(=O)O)c1 (single isomer, unassigned) [Compound 15b, trans-(−)-2-(3-(2-carbamoyl-6-(trifluoromethoxy)-1H-indol-1-yl)phenyl)cyclopropane-1-carboxylic acid] | > 1000 | > 5000 | 20 to 50 | – | – | – | – | –
NC(=O)c1cc2ccc(OC(F)(F)F)cc2n1-c1cccc([C@@H]2C[C@H]2C(=O)O)n1 (single isomer, unassigned) [Compound 28b, trans-(+)-2-(6-(2-carbamoyl-6-(trifluoromethoxy)-1H-indol-1-yl)pyridin-2-yl)cyclopropane-1-carboxylic acid] | > 1000 | > 5000 | > 200 | – | – | – | – | –
NC(=O)c1cc2ccc(OC(F)(F)F)cc2n1-c1cccc(C2CC2C(=O)O)n1 (single isomer, unassigned) [Compound 28d, cis-(−)-2-(6-(2-carbamoyl-6-(trifluoromethoxy)-1H-indol-1-yl)pyridin-2-yl)cyclopropane-1-carboxylic acid] | > 1000 | 1500 to 5000 | 50 to 200 | – | – | – | – | –
NC(=O)c1cc2ccc(OC(F)(F)F)cc2n1-c1cccc(C2CC2C(=O)O)n1 (single isomer, unassigned) [Compound 28e, cis-(+)-2-(6-(2-carbamoyl-6-(trifluoromethoxy)-1H-indol-1-yl)pyridin-2-yl)cyclopropane-1-carboxylic acid] | < 200 | > 5000 | < 20 | – | – | – | – | –
COc1cnc2cc(C(N)=O)n(-c3cccc(C4CC4C(=O)O)n3)c2c1 (single isomer, unassigned) [Compound 51, trans-2-(6-(2-carbamoyl-6-methoxy-1H-pyrrolo[3,2-b]pyridin-1-yl)pyridin-2-yl)cyclopropane-1-carboxylic acid] | > 1000 | > 5000 | > 200 | – | – | – | – | –
NC(=O)c1cc2ccc(OC(F)(F)F)cc2n1-c1ccc2c(c1)C(CC(=O)O)CO2 (single isomer, unassigned; (+)) [Compound 1a, (+)-2-(5-(2-carbamoyl-6-(trifluoromethoxy)-1H-indol-1-yl)-2,3-dihydrobenzofuran-3-yl)acetic acid] | > 1000 | > 5000 | 50 to 200 | – | – | – | – | –
NC(=O)c1cc2ccc(OC(F)(F)F)cc2n1-c1ccc2c(c1)C(CC(=O)O)CO2 (single isomer, unassigned; (-)) [Compound 1b, (−)-2-(5-(2-carbamoyl-6-(trifluoromethoxy)-1H-indol-1-yl)-2,3-dihydrobenzofuran-3-yl)acetic acid] | > 1000 | – | > 200 | – | – | – | – | –
CCc1c(C(=O)C(N)=O)c2c(OCC(=O)O)cccc2n1Cc1ccccc1 [LY315920, Varespladib, reference compound] | – | – | – | – | – | – | ~100 | 124
